Laboratory results from patent US10617117B2, “Insect repellent composition and method of use” (NEO-INNOVA HEALTHCARE LIMITED, priority 2015, dated 2020).
“Also recorded” adds a separate entry of the source.

Assays:
[1] = Stability tests, accelerated storage 54° C. for 14 days (discoloration of vanillin); format: physicochemical; conditions: room temperature and 54° C.; antioxidant added to vanillin-containing composition
Experimental: […] The front line accelerated conditions recommend testing at 54° C. for 14 days (see BPR 528/2012: Volume I. Part A, Chapter III: Requirements for Biocide Products, Version 1.1 Nov. 2014).

Aedes Aegypti = conditions: at circa 50% concentrations, FIG. 1; cited from earlier work
[2] = human skin; cited from earlier work
[3] = tested on: Culex spp., Aedes spp., Mansonia spp., and Verrallina spp.; conditions: compared with Anopheles spp.; cited from earlier work
[4] = tested on: biting flies, such as a mosquito; conditions: in vivo; cited from earlier work
[5] = tested on: Aedes aegypti female mosquitoes; test: laboratory arm or hand in cage test (complete protection time); format: in vivo; conditions: Citriodiol as active substance, with vanillin, FIG. 14
Experimental: Complete protection times are calculated as the number of minutes (or hours) elapsed between the time of repellent application and the first mosquito landing or probing. Complete Protection Times are reported herein as a median value of protection time given by each individual. Complete Protection Times are abbreviated herein as CPTs. […]
Complete protection time provided by each product was evaluated by following hand in cage studies as per a modified WHO protocol (HTM/NTD/WHOPES/2009.4).
Typically, the test consisted of inserting a repellent treated arm into a cage measuring 35 cm on each side, containing laboratory bred 200 numbers of non-blood fed Aedes Aegypti mosquitoes which were approximately 5-7 days old and the elapsed time to first landing or probing (which refers to an insect landing and penetrating the skin with its mouthparts, without ingesting blood) was determined. […]
Readiness of the mosquitoes to bite (biting pressure) was checked by inserting un-treated arm for 1 minute prior to inserting treated arm at each 30-minute interval. […] Complete protection time was calculated as the number of minutes (or hours) elapsed between the time of repellent application and the first mosquito landing or probing. […]

Row | Compound | photosensitisation and secondary oxidation (discoloration) of vanillin [1] | CPTs compared with DEET [4] | further results
1 | COc1ccc(O)c(C(C)(C)C)c1 [BHA] | negative | – | –
2 | CCN(CC)C(=O)c1cccc(C)c1 [DEET, N,N-Diethyl-3-methylbenzamide] | – | – | CPT at which activity plateaus (Aedes Aegypti): 5 to 6 h; absorption through skin [2]: absorbed through human skin; protection against different mosquito genera [3]: longer against these genera than provided against Anopheles spp.
3 | CCCCN(CCC(=O)OCC)C(C)=O [IR3535, ethyl butylacetylaminopropionate] | – | neither ethyl butylacetylaminopropionate (IR3535) nor Picaridin (KBR 3023) has demonstrated meaningful superiority to DEET | –
4 | CCC(C)OC(=O)N1CCCCC1CCO (stereo not drawn) [Picaridin] | – | neither ethyl butylacetylaminopropionate (IR3535) nor Picaridin (KBR 3023) has demonstrated meaningful superiority to DEET | –
5 | CCCOC(=O)c1cc(O)c(O)c(O)c1 [propyl gallate] | negative | – | –
6 | O=S([O-])O.[Na+] [sodium bisulphite] | Lack of photosensitisation and secondary oxidation of vanillin; also recorded: one significant exception | – | effect of addition of 1% antioxidant on efficacy (CPTs) [5]: still further significant improvement in efficacy
